Results on 28 compounds are retold here after patent US9926267B2, “Covalent inhibitors of K-Ras G12C” (Araxes Pharma LLC, priority 2013, dated 2018).

This experiment addresses T1, KRAS G12C 1-169, his-tagged protein, GDP-loaded (Homo sapiens, UniProt P01116, G12C).
T1 construct: KRAS G12C 1-169, his-tagged protein, GDP-loaded
The experiment can be described thus: Biochemical assay: covalent binding to KRAS G12C, measured by mass spectrometry. The protocol:
Test compounds were prepared as 10 mM stock solutions in DMSO (Fisher cat#BP-231-100). KRAS G12C 1-169, his-tagged protein, GDP-loaded was diluted to 2 μm in buffer (20 mM Hepes, 150 mM NaCl, 1 mM MgCl2). Compounds were tested for activity as follows:
Compounds were diluted to 50× final test concentration in DMSO in 96-well storage plates. Compound stock solutions were vortexed before use and observed carefully for any sign of precipitation. Dilutions were as follow: • For 100 μM final compound concentration, compounds were diluted to 5000 μM (5 μl 10 mM compound stock+5 μl DMSO and mixed well by pipetting. • For 30 μM final compound concentration, compounds were diluted to 1500 μM (3 μl 10 mM compound stock+17 μl DMSO) and mixed well by pipetting. • For […] final compound concentration, compounds were diluted to 500 μM (2 μl 10 mM compound stock+38 μl DMSO) and mixed well by pipetting. 49 μl of the stock protein solution was added to each well of a 96-well PCR plate (Fisher cat#1423027). 1 μl of the diluted 50× compounds were added to appropriate wells in the PCR plate using 12-channel pipettor. Reactions were mixed carefully and thoroughly by pipetting up/down with a 200 μl multi-channel pipettor. The plate was sealed well with aluminum plate seal, and stored in a drawer at room temperature for 2 hrs or 24 hrs. 5 μl of 2% formic acid (Fisher cat#A117) in DI H2O was then added to each well followed by mixing with a pipette. The plate was then resealed with aluminum seal and stored on dry ice until analyzed as described below.
The above described assays were analyzed by mass spectrometry according to the following procedure:
The MS instrument is set to positive polarity, 2 GHz resolution, and low mass (1700) mode and allowed to equilibrate for 30 minutes. The instrument is then calibrated, switched to acquisition mode and the appropriate method loaded.
After another 30 minute equilibration time, a blank batch (i.e., buffer) is run to ensure equipment is operating properly. The samples are thawed at 37° C. for 10 minutes, briefly centrifuged, and transfer to the bench top. Wells A1 and H12 are spiked with 1 uL 500 uM internal standard peptide, and the plates centrifuged at 2000×g for 5 minutes. The method is then run and masses of each individual well recorded.
The masses (for which integration data is desired) for each well are pasted into the platemap and exported from the analysis. Masses for the internal standards are exported as well. The data at 50 ppm is extracted for the +19 charge state, and identity of well A1 is assigned using the internal standard spike and integrated. Peak data is exported as a TOF list and the above steps are repeated individually, for the +20, 21, 22, 23, 24, and charge states.

The mark [1] stands for this setting: Binding activity determined at 24 hrs, Table 7a.
[2] abbreviates: Binding activity determined at 24 hrs, Table 8a.

T1 sequence (P01116 1-169 isoform P01116-2 G12C): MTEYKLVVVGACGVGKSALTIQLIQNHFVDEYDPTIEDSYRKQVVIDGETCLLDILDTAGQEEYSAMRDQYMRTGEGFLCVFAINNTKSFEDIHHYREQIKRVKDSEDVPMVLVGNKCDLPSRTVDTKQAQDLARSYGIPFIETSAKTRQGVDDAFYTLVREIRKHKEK

Regarding `C=CC(=O)N1CCN(C2CCN(C(=O)CNc3cc(Cl)c(Cl)cc3O)C2)CC1` (stereo not shown) [Compound V-4, 1-(4-(1-(2-(4,5-dichloro-2-hydroxyphenyl-amino)acetyl)pyrrolidin-3-yl)piperazin-1-yl)prop-2-en-1-one], the Binding % entry under setting [1] is “+++ (+++ indicates binding activity greater than 25% and up to 50%)”. Consider `C=CC(=O)N1CCC(N2CCN(C(=O)CNc3cc(Cl)c(C)cc3O)CC2)C1` (stereo not shown) [Compound V-8, 1-(3-(4-(2-(5-chloro-2-hydroxy-4-methylphenyl-amino)acetyl)piperazin-1-yl)pyrrolidin-1-yl)prop-2-en-1-one], for which the Binding % entry under setting [1] is “++ (++ indicates binding activity greater than 15% and up to 25%)”. Same read-out and setting: next, `C=CC(=O)N1CC(N2CCN(CCNc3cc(Cl)c(Cl)cc3O)CC2)C1` [Compound V-15, 1-(3-(4-(2-(4,5-dichloro-2-hydroxyphenyl-amino)ethyl)piperazin-1-yl)azetidin-1-yl)prop-2-en-1-one]: “+ (+ indicates binding activity from 5% to 15%)”. For `C=CC(=O)N1CC(N2CCN(C(=O)NCc3cc(Br)c(Cl)cc3O)CC2)C1` [Compound V-66, 4-(1-acryloylazetidin-3-yl)-N-(5-bromo-4-chloro-2-hydroxybenzyl) piperazine-1-carboxamide], under “Binding activity determined at 2 hrs, Table 7b”, the Binding % entry was “+ (+ indicates binding activity from 5% to 20%)”. Take `C=CC(=O)N1CCN(C(=O)c2cc(-c3ccccc3Cl)c(Cl)cc2OC)CC1` [VI-1, 1-(4-(2′,6-dichloro-4-methoxybiphenyl-carbonyl)piperazin-1-yl)prop-2-en-1-one]: the Binding % entry under setting [2] is recorded as “+ (+ indicates binding activity from 5% to 10%)”.

In the case of `C=CC(=O)N1CCN(C(=O)c2cc(I)c(Cl)cc2OC)CC1` [VI-2, 1-(4-(4-chloro-5-iodo-2-methoxybenzoyl)piperazin-1-yl)prop-2-en-1-one], the Binding % entry under setting [2] was “++ (++ indicates binding activity greater than 10% and up to 20%)”. Turning to `C=CC(=O)N1CCN(C(=O)c2cc(-c3ccccc3Cl)c(Cl)cc2O)CC1` [VI-3, 1-(4-(2′,6-Dichloro-4-hydroxy-[1,1′-biphenyl]-3-carbonyl)piperazin-1-yl)prop-2-en-1-one], the Binding % entry under setting [2] is listed as “++++ (++++ indicates binding activity greater than 30%)”. The same measure, in the same setting: the value for `C=CC(=O)N1CCN(C(=O)c2cc(-c3cc(F)ccc3Cl)c(Cl)cc2OC)CC1` [VI-4, 1-(4-(2′,6-dichloro-5′-fluoro-4-methoxybiphenyl-carbonyl)piperazin-1-yl)prop-2-en-1-one] was “++ (++ indicates binding activity greater than 10% and up to 20%)”; that for `C=CC(=O)N1CCN(C(=O)c2cc(-c3cc(Cl)ccc3Cl)c(Cl)cc2OC)CC1` [VI-5, 1-(4-(2′,5′,6-trichloro-4-methoxybiphenyl-carbonyl)piperazin-1-yl)prop-2-en-1-one] was “++++ (++++ indicates binding activity greater than 30%)”; that for `C=CC(=O)N1CCN(C(=O)c2cc(-c3cc(Cl)ccc3Cl)c(Cl)cc2OC)CC1CO` (stereo not shown) [VI-6, 1-(2-(hydroxymethyl)-4-(2′,5′,6-trichloro-4-methoxybiphenyl-carbonyl)piperazin-1-yl)prop-2-en-1-one] was “++ (++ indicates binding activity greater than 10% and up to 20%)”. Same read-out and setting: the value for `C=CC(=O)N1CCN(C(=O)c2cc(Cl)c(Cl)cc2O)CC1` [VI-8, 1-(4-(4,5-dichloro-2-hydroxybenzoyl)piperazin-1-yl)prop-2-en-1-one] was “+ (+ indicates binding activity from 5% to 10%)”; that for `C=CC(=O)N1CCN(C(=O)c2cc(Br)c(Cl)cc2O)CC1` [VI-9, 1-(4-(5-bromo-4-chloro-2-hydroxybenzoyl)piperazin-1-yl)prop-2-en-1-one] was “+ (+ indicates binding activity from 5% to 10%)”. On the same count and under the same terms, next, `COc1cc(Cl)c(-c2ccccc2Cl)cc1C(=O)N1CCN(C(=O)/C=C/CN(C)C)CC1` [VI-10, (E)-1-(4-(2′,6-dichloro-4-methoxybiphenyl-carbonyl)piperazin-1-yl)-4-(dimethylamino)but-2-en-1-one]: “+ (+ indicates binding activity from 5% to 10%)”; `C=CC(=O)N1CCN(C(=O)c2cc(-c3ccccc3Cl)n[nH]2)CC1` [VI-11, 1-(4-(3-(2-chlorophenyl)-1H-pyrazole-5-carbonyl)piperazin-1-yl)prop-2-en-1-one]: “+ (+ indicates binding activity from 5% to 10%)”; `C=CC(=O)N1CCN(C(=O)c2ccc(Cl)c(-c3ccccc3Cl)c2)CC1` [VI-12, 1-(4-(2′,6-dichlorobiphenyl-carbonyl)piperazin-1-yl)prop-2-en-1-one]: “+++ (+++ indicates binding activity greater than 20% and up to 30%)”. With `C=CC(=O)NC1CN(C(=O)c2cc(-c3ccccc3Cl)c(Cl)cc2O)C1` [VI-13, N-(1-(2′,6-dichloro-4-hydroxybiphenyl-carbonyl)azetidin-3-yl)acrylamide], under setting [2], the Binding % entry is on record as “+ (+ indicates binding activity from 5% to 10%)”.

Consider `C=CC(=O)N1CC(NC(=O)c2cc(-c3ccccc3Cl)[nH]n2)C1` [VI-14, N-(1-acryloylazetidin-3-yl)-3-(2-chlorophenyl)-1H-pyrazole-5-carboxamide], for which the Binding % result under setting [2] was “+ (+ indicates binding activity from 5% to 10%)”. Regarding `C=CC(=O)NC1CN(C(=O)c2cc(-c3ccccc3Cl)[nH]n2)C1` [VI-15, N-(1-(3-(2-chlorophenyl)-1H-pyrazole-5-carbonyl)azetidin-3-yl)acrylamide], the Binding % entry under setting [2] is on record as “+ (+ indicates binding activity from 5% to 10%)”. Still for that read-out and setting: the value for `C=CC(=O)N1CCN(C(=O)c2cc(-c3cccs3)[nH]n2)CC1` [VI-16, 1-(4-(5-(thiophen-2-yl)-1H-pyrazole-3-carbonyl)piperazin-1-yl)prop-2-en-1-one] was “+ (+ indicates binding activity from 5% to 10%)”; that for `C=CC(=O)N1CCN(C(=O)c2cc(-c3cc(Cl)ccc3Cl)c(Cl)cc2O)CC1` [VI-17, 1-(4-(2′,5′,6-trichloro-4-hydroxybiphenyl-carbonyl)piperazin-1-yl)prop-2-en-1-one] was “++++ (++++ indicates binding activity greater than 30%)”; that for `C=CC(=O)N1CCN(C(=O)c2csc(-c3ccccc3Cl)n2)CC1` [VI-18, 1-(4-(2-(2-chlorophenyl)thiazole-4-carbonyl)piperazin-1-yl)prop-2-en-1-one] was “+ (+ indicates binding activity from 5% to 10%)”. On to `C=CC(=O)N1CCN(C(=O)c2nc(-c3ccccc3Cl)cs2)CC1` [VI-19, 1-(4-(4-(2-chlorophenyl)thiazole-2-carbonyl)piperazin-1-yl)prop-2-en-1-one], for which, under setting [2], the Binding % entry was “+ (+ indicates binding activity from 5% to 10%)”. Same read-out and setting: the value for `C=CC(=O)N1CCN(C(=O)c2nc(-c3ccccc3Cl)sc2Cl)CC1` [VI-20, 1-(4-(5-chloro-2-(2-chlorophenyl)thiazole-4-carbonyl)piperazin-1-yl)prop-2-en-1-one] was “+ (+ indicates binding activity from 5% to 10%)”; that for `C=CC(=O)N1CCN(C(=O)c2cc(-c3ccccc3Cl)c[nH]2)CC1` [VI-21, 1-(4-(4-(2-chlorophenyl)-1H-pyrrole-2-carbonyl)piperazin-1-yl)prop-2-en-1-one] was “++ (++ indicates binding activity greater than 10% and up to 20%)”; that for `C=CC(=O)N1CCN(C(=O)c2nc(-c3ccccc3Cl)c(C)s2)CC1` [VI-22, 1-(4-(4-(2-chlorophenyl)-5-methylthiazole-2-carbonyl)piperazin-1-yl)prop-2-en-1-one] was “+ (+ indicates binding activity from 5% to 10%)”. Same read-out and setting: the value for `C=CC(=O)N1CCN(C(=O)c2cc(-c3ccccc3Cl)c(C)[nH]2)CC1` [VI-23, 1-(4-(4-(2-chlorophenyl)-5-methyl-1H-pyrrole-2-carbonyl)piperazin-1-yl)prop-2-en-1-one] was “+++ (+++ indicates binding activity greater than 20% and up to 30%)”; that for `CN(C)C/C=C/C(=O)N1CCN(C(=O)c2cc(-c3ccccc3Cl)c(Cl)cc2O)CC1` [VI-24, (E)-1-(4-(2′,6-dichloro-4-hydroxy-[1,1′-biphenyl]-3-carbonyl)piperazin-1-yl)-4-(dimethylamino)but-2-en-1-one] was “++++ (++++ indicates binding activity greater than 30%)”; that for `C=CC(=O)N1CCN(C(=O)c2cc(O)cc(-c3ccccc3Cl)c2)CC1` [VI-25, 1-(4-(2′-Chloro-5-hydroxy-[1,1′-biphenyl]-3-carbonyl)piperazin-1-yl)prop-2-en-1-one] was “+++ (+++ indicates binding activity greater than 20% and up to 30%)”.
